Data published in US9179668B2, “Use of glycerol ethers as activators of the biological effects of a herbicide, fungicide or insecticide substance” (FONDS DE DEVELOPPEMENT DES FILIERES DES OLEAGINEUX ET …, priority 2009, dated 2015).

What was measured:
herbaceous plants = test: Spraying of herbicide solutions on 50×50 cm plots of land with herbaceous plants; deterioration of the vegetation observed; type: in vivo
Experimental: The following tests were carried out on plots of land of 50×50 cm on which herbaceous plants occur. Each of the solutions tested is sprayed over a plot which is assigned to it.
The time necessary for the complete destruction of the vegetation was compared, on similar plots planted with herbaceous plants, with a herbicide alone, on the one hand, and the same herbicide to which has been added a glycerol ether: 3-methyloxypropane-1,2-diol, on the other hand.
A solution comprising 6 g/l of glyphosate (in the acid form) was sprayed over plot 1 in a proportion of 36 grams to the m^2.
A solution comprising […] and 0.9 g/l of 3-methyl-oxypropane-1,2-diol was sprayed over plot 2 in a proportion of 36 grams to the m^2.
The following sprayings were carried out on 4 plots covered with herbaceous plants: • Plot 1: glyphosate at 6 g/l (36 g of the solution to the m^2) • Plot 2: glyphosate at 4.5 g/l (36 g of the solution to the m^2) • Plot 3: a solution of glyphosate at 1.5 g/l 3-pentyloxypropane-1,2-diol at 0.9 g/l, in a proportion of 36 g of the solution to the m^2. • Plot 4: a solution of glyphosate at […] 3-pentyloxypropane-1,2-diol at 0.9 g/l, in a proportion of 36 g of the solution to the m^2.

Candida albicans = Candida albicans on agar in a Petri dish with impregnated blotting paper disks; inhibition regions observed; type: cell-based
From the text: In the following examples, the Candida albicans test strain used is sold under the reference ATCC 10231, Collection Institut Pasteur.
A Candida albicans strain was inoculated on agar in a Petri dish. Disks of blotting paper impregnated with the following solutions were subsequently deposited at its surface:
• disk 1 is impregnated with a solution comprising […] • disk 2 is impregnated with a solution comprising 0.5 g/l of mancozeb • disk 3 is impregnated with a solution comprising 0.2 g/l of mancozeb • disk 4 is impregnated with a solution comprising 0.2 g/l of mancozeb and 0.1 g/l of 3-butyloxypropane-1,2-diol.

Lucilia caesar = test: Spraying of insecticide solution on 30 flies in a cage; degree of mortality; type: in vivo; details: 1.8 g of solution; for degree of mortality: diflubenzuron 39.0 mg/l + glycerol ether 47.0 mg/l (cage 2)
Experimental: 30 flies of the species Lucilia caesar were introduced into each of the cages made with a cubic frame from lengths of wood and mosquito screens. One of the faces was pierced with a hole through which a sprayer for the test solution is introduced: • in cage 1, 1.8 g of a solution comprising 39.0 mg/l of diflubenzuron were sprayed • in cage 2, 1.8 g of a solution comprising 39.0 mg/l of diflubenzuron and 47.0 mg/l of 3-isopropyloxypropane-1,2-diol were sprayed.

Sitobion avenae = test: Spraying of insecticide solution on 25 aphids in a Petri dish; degree of mortality; type: in vivo; details: read-out: degree of mortality
Experimental: The aphids of the species Sitobion avenae used in the following examples were supplied by the Université de Picardie d'Amiens [University of Picardy of Amiens], laboratoire de biologie des plantes et contrôle des insectes ravageurs [Plant Biology and Insect Pest Control Laboratory], EA3900, 33, rue Saint Leu, Amiens 80000.
25 aphids of the species Sitobion avenae were introduced into a Petri dish into which the test solution was sprayed: • in dish 1, 1.8 g of a solution comprising 39.0 mg/l of diflubenzuron were sprayed; • in dish 2, 1.8 g of a solution comprising 39.0 mg/l of diflubezuron and 47.0 mg/l of 3-isopropyloxypropane-1,2-diol were sprayed.

[1] = glyphosate 6 g/l + glycerol ether 0.9 g/l, 36 g of solution per m^2 (plot 2)
[2] = glyphosate 1.5 g/l + glycerol ether 0.9 g/l, 36 g of solution per m^2
[3] = glyphosate 3 g/l + glycerol ether 0.9 g/l, 36 g of solution per m^2
[4] = glyphosate 6 g/l alone, 36 g of solution per m^2 (plot 1)

Molecule | time after which deterioration began (herbaceous plants; [1]) [days] | time after which deterioration was complete (herbaceous plants; [1]) [days] | state of plot after 30 days (herbaceous plants; [2]) | state of plot after 30 days (herbaceous plants; [3]) | other results
CCCCCCCCCCOCC(O)CO (centres unmarked) [3-decyloxypropane-1,2-diol] | 4 | 11 | – | – | –
CCCCOCC(O)CO (centres unmarked) [3-butyloxypropane-1,2-diol] | 3 | 10 | unaffected | completely deteriorated | inhibition region of growth around the disk (Candida albicans; mancozeb 0.2 g/l + glycerol ether 0.1 g/l (disk 4)): circular regions of inhibition of the growth
COCC(O)COC [1,3-dimethyloxypropan-2-ol] | 4 | 15 | – | – | –
O=C(O)CNCP(=O)(O)O [glyphosate, reference compound] | – | – | – | – | state of plot after 30 days (herbaceous plants; glyphosate 4.5 g/l alone, 36 g of solution per m^2 (plot 2)): unaffected; state of plot after 30 days (herbaceous plants; [4]): completely deteriorated; time after which deterioration began (herbaceous plants; [4]): 8 days; time after which deterioration was complete (herbaceous plants; [4]): 18 days
CCOCC(O)CO (centres unmarked) [3-ethyloxypropane-1,2-diol] | 3 | 11 | – | – | –
CC(C)CCCCCCOCC(O)CO (centres unmarked) [3-isononyloxypropane-1,2-diol] | – | – | unaffected | completely deteriorated | –
mancozeb [reference compound] | – | – | – | – | inhibition region of growth around the disk (Candida albicans; mancozeb 0.2 g/l alone (disk 3)): absence was observed of an inhibition region; inhibition region of growth around the disk (Candida albicans; mancozeb 0.5 g/l alone (disk 2)): absence was observed of an inhibition region; inhibition region of growth around the disk (Candida albicans; mancozeb 0.8 g/l alone (disk 1)): circular regions of inhibition of the growth
COCC(O)CO (centres unmarked) [3-methyloxypropane-1,2-diol] | 4 | 13 | – | – | –
CCCCCCOCC(O)CO (centres unmarked) [3-hexyloxypropane-1,2-diol] | 3 | 10 | unaffected | completely deteriorated | –
O=C(NC(=O)c1c(F)cccc1F)Nc1ccc(Cl)cc1 [diflubenzuron, reference compound] | – | – | – | – | mortality at 39 µg/mL (Lucilia caesar; Lucilia caesar, diflubenzuron 39.0 mg/l alone (cage 1)): 29%; mortality at 39 µg/mL (Sitobion avenae): 21%
CCCCC(CC)COCC(O)CO (centres unmarked) [3-(2-ethylhexyloxy)propane-1,2-diol] | 3 | 11 | unaffected | completely deteriorated | degree of mortality (Lucilia caesar): 56%; inhibition region of growth around the disk (Candida albicans; mancozeb 0.2 g/l + glycerol ether 0.05 g/l (disk 4)): circular regions of inhibition of the growth
CC(C)OCC(O)CO (centres unmarked) [3-isopropyloxypropane-1,2-diol] | 3 | 12 | unaffected | completely deteriorated | degree of mortality (Lucilia caesar): 64%
CCCCCOCC(O)CO (centres unmarked) [3-pentyloxypropane-1,2-diol] | 3 | 10 | completely deteriorated | – | inhibition region of growth around the disk (Candida albicans; mancozeb 0.2 g/l + glycerol ether 0.25 g/l (disk 4)): circular regions of inhibition of the growth; state of plot after 30 days (herbaceous plants; glyphosate 0.75 + glycerol ether 0.9 g/l, 36 g of solution per m^2): unaffected
Cc1nc(N(C)C)nc(OC(=O)N(C)C)c1C [pirimicarb] | – | – | – | – | mortality at 78.1 µg/mL (Sitobion avenae): 16%
CCOCC(O)COCC [1,3-diethyloxypropan-2-ol] | 4 | 13 | – | – | –
